Test results as given in paper PMC11971462, “Generation and validation of a novel multitarget small molecule in glioblastoma” (Cell Death & Disease, 2025).

System: GNS166 cells
Assay: Label-free proteomics differential expression
Type: cell-based, human
Procedure: Proteomic studies were performed by the Proteomics Facility of the CIC bioGUNE by label-free relative quantification on nLC MS/MS. […] In both approaches, the top 20 enriched terms were plotted and the pathways were clustered using divisive hierarchical clustering based on pairwise Jaccard distances.

C#CCN(Cc1cc2cc(OCCCN3CCCCC3)ccc2n1S(=O)(=O)c1ccccc1)C(=O)CCCCCCC(=O)NO [DDI]
Direction ANR52_HUMAN (protein Q8NB46): Down | LogFC ANR52_HUMAN (protein Q8NB46): -3.184 | Direction TTC13_HUMAN (protein Q8NBP0): Down | LogFC TTC13_HUMAN (protein Q8NBP0): -1.381 | LogFC KMT2C_HUMAN (protein Q8NEZ4 GN=KMT2C): 0.407 | LogFC PLBL2_HUMAN (protein Q8NHP8 GN=PLBD2): 1.378 | LogFC NEDD1_HUMAN (protein Q8NHV4 GN=NEDD1): 0.5958 | LogFC SMRC2_HUMAN (protein Q8TAQ2 GN=SMARCC2): -0.7509 | LogFC CX038_HUMAN (protein Q8TB03 GN=CXorf38): 1.347 | LogFC GDAP1_HUMAN (protein Q8TB36 GN=GDAP1): 1.874 | Direction CIP2A_HUMAN (protein Q8TCG1): Down | LogFC CIP2A_HUMAN (protein Q8TCG1): -1.2095 | LogFC DDX54_HUMAN (protein Q8TDD1 GN=DDX54): -1.067 | Direction DTD1_HUMAN (protein Q8TEA8): Down | LogFC DTD1_HUMAN (protein Q8TEA8): -0.5287 | LogFC PPIL4_HUMAN (protein Q8WUA2 GN=PPIL4): -1.325 | Direction LMBR1_HUMAN (protein Q8WVP7): Down | LogFC LMBR1_HUMAN (protein Q8WVP7): -0.9571 | LogFC FACR1_HUMAN (protein Q8WVX9 GN=FAR1): 0.64 | LogFC UBCP1_HUMAN (protein Q8WVY7 GN=UBLCP1): 1.245 | Direction ATX2L_HUMAN (protein Q8WWM7): Down | LogFC ATX2L_HUMAN (protein Q8WWM7): -0.7543 | Direction PHIP_HUMAN (protein Q8WWQ0): Down | LogFC PHIP_HUMAN (protein Q8WWQ0): -2.692 | Direction NELFB_HUMAN (protein Q8WX92): Down | LogFC NELFB_HUMAN (protein Q8WX92): -0.7153 | Direction ATLA1_HUMAN (protein Q8WXF7): Down | LogFC ATLA1_HUMAN (protein Q8WXF7): -1.239 | Direction CND3_HUMAN (protein Q9BPX3): Down | LogFC CND3_HUMAN (protein Q9BPX3): -1.5744 | Direction FSP1_HUMAN (protein Q9BRQ8): Down | LogFC FSP1_HUMAN (protein Q9BRQ8): -0.8531 | Direction GCP2_HUMAN (protein Q9BSJ2): Down | LogFC GCP2_HUMAN (protein Q9BSJ2): -1.427 | LogFC P4K2A_HUMAN (protein Q9BTU6 GN=PI4K2A): 1.541 | LogFC TMM43_HUMAN (protein Q9BTV4 GN=TMEM43): -0.7287 | LogFC MKNK1_HUMAN (protein Q9BUB5 GN=MKNK1): 1.242 | LogFC TBB2B_HUMAN (protein Q9BVA1 GN=TUBB2B): 1.2351 | Direction PBDC1_HUMAN (protein Q9BVG4): Down | LogFC PBDC1_HUMAN (protein Q9BVG4): -0.9108 | Direction KIFC1_HUMAN (protein Q9BW19): Down | LogFC KIFC1_HUMAN (protein Q9BW19): -4.377 | Direction NADAP_HUMAN (protein Q9BWU0): Down | LogFC NADAP_HUMAN (protein Q9BWU0): -0.9102 | Direction LS14B_HUMAN (protein Q9BX40): Down | LogFC LS14B_HUMAN (protein Q9BX40): -1.3017 | Direction NUSAP_HUMAN (protein Q9BXS6): Down | LogFC NUSAP_HUMAN (protein Q9BXS6): -2.873 | Direction EIF2A_HUMAN (protein Q9BY44): Down | LogFC EIF2A_HUMAN (protein Q9BY44): -0.2917 | LogFC PDIP3_HUMAN (protein Q9BY77 GN=POLDIP3): -0.8716 | LogFC GNB1L_HUMAN (protein Q9BYB4 GN=GNB1L): 2.567 | LogFC PAR6B_HUMAN (protein Q9BYG5 GN=PARD6B): 1.231 | LogFC ARL6_HUMAN (protein Q9H0F7 GN=ARL6): 2.762 | Direction RGAP1_HUMAN (protein Q9H0H5): Down | LogFC RGAP1_HUMAN (protein Q9H0H5): -3.033 | Direction SMG9_HUMAN (protein Q9H0W8): Down | LogFC SMG9_HUMAN (protein Q9H0W8): -1.751 | Direction YTDC2_HUMAN (protein Q9H6S0): Down | LogFC YTDC2_HUMAN (protein Q9H6S0): -1.289 | LogFC ANKZ1_HUMAN (protein Q9H8Y5 GN=ANKZF1): 2.2814 | LogFC EHMT1_HUMAN (protein Q9H9B1 GN=EHMT1): -1.629 | Direction EHD4_HUMAN (protein Q9H223): Down | LogFC EHD4_HUMAN (protein Q9H223): -0.4023 | LogFC FN3K_HUMAN (protein Q9H479 GN=FN3K): -1.71 | Direction HEAT1_HUMAN (protein Q9H583): Down | LogFC HEAT1_HUMAN (protein Q9H583): -0.4862 | Direction PHAX_HUMAN (protein Q9H814): Down | LogFC PHAX_HUMAN (protein Q9H814): -0.7063 | LogFC NT5D2_HUMAN (protein Q9H857 GN=NT5DC2): 0.9697 | Direction ZWILC_HUMAN (protein Q9H900): Down | LogFC ZWILC_HUMAN (protein Q9H900): -1.417 | LogFC QTRT2_HUMAN (protein Q9H974 GN=QTRT2): -0.9473 | LogFC WDR54_HUMAN (protein Q9H977 GN=WDR54): 2.021 | LogFC ARMT1_HUMAN (protein Q9H993 GN=ARMT1): 1.113 | LogFC KT3K_HUMAN (protein Q9HA64 GN=FN3KRP): 0.7505 | Direction TM165_HUMAN (protein Q9HC07): Down | LogFC TM165_HUMAN (protein Q9HC07): -0.8409 | Direction CWC22_HUMAN (protein Q9HCG8): Down | LogFC CWC22_HUMAN (protein Q9HCG8): -0.5601 | LogFC VAT1L_HUMAN (protein Q9HCJ6 GN=VAT1L): 1.2681 | Direction RM47_HUMAN (protein Q9HD33): Down | LogFC RM47_HUMAN (protein Q9HD33): -0.8741 | Direction TM9S3_HUMAN (protein Q9HD45): Down | LogFC TM9S3_HUMAN (protein Q9HD45): -0.5879 | Direction HM20A_HUMAN (protein Q9NP66): Down | LogFC HM20A_HUMAN (protein Q9NP66): -1.261 | LogFC TNR12_HUMAN (protein Q9NP84 GN=TNFRSF12A): -2.0106 | Direction LUC7L_HUMAN (protein Q9NQ29): Down | LogFC LUC7L_HUMAN (protein Q9NQ29): -0.6796 | Direction SSF1_HUMAN (protein Q9NQ55): Down | LogFC SSF1_HUMAN (protein Q9NQ55): -1.815 | LogFC CL004_HUMAN (protein Q9NQ89 GN=C12orf4): 1.057 | LogFC ITM2C_HUMAN (protein Q9NQX7 GN=ITM2C): 1.931 | LogFC DBLOH_HUMAN (protein Q9NR28 GN=DIABLO): 1.0021 | LogFC DDX21_HUMAN (protein Q9NR30 GN=DDX21): -1.5607 | LogFC HEBP1_HUMAN (protein Q9NRV9 GN=HEBP1): 1.384 | Direction ABC3C_HUMAN (protein Q9NRW3): Down | LogFC ABC3C_HUMAN (protein Q9NRW3): -0.8611 | Direction LANC2_HUMAN (protein Q9NS86): Down | LogFC LANC2_HUMAN (protein Q9NS86): -1.981 | LogFC HOME3_HUMAN (protein Q9NSC5 GN=HOMER3): 1.625 | Direction F207A_HUMAN (protein Q9NSI2): Down | LogFC F207A_HUMAN (protein Q9NSI2): -1.761 | LogFC DIAP3_HUMAN (protein Q9NSV4 GN=DIAPH3): -2.473 | Direction SMC4_HUMAN (protein Q9NTJ3): Down | LogFC SMC4_HUMAN (protein Q9NTJ3): -1.4105 | Direction TYDP1_HUMAN (protein Q9NUW8): Down | LogFC TYDP1_HUMAN (protein Q9NUW8): -1.1128 | Direction FANCI_HUMAN (protein Q9NVI1): Down | LogFC FANCI_HUMAN (protein Q9NVI1): -3.564 | Direction EVA1B_HUMAN (protein Q9NVM1): Down | LogFC EVA1B_HUMAN (protein Q9NVM1): -3.511 | Direction THG1_HUMAN (protein Q9NWX6): Down
